# Laboratory results as given in US20010039026A1, “Assay method” (priority 2000, published 2001).
# Like-named read-outs stand apart in the source and are kept apart here.
# Columns and labels:
# [1] = tested on: CXCR4 dependent primary and lab-adapted HIV viruses; conditions: cited from earlier work
# CCR5-tropic strains = conditions: cited from earlier work
# [2] = tested on: primary, nonsyncytium-inducing (NSI) HIV-1 strains; conditions: primary NSI HIV-1 strains; cited from earlier work
# primary HIV isolates = conditions: cited from earlier work
# [3] = tested on: env-mediated cell-cell fusion; conditions: cited from earlier work
# CCCKR5 = target: T1, CCCKR5 (Homo sapiens, UniProt P51681); conditions: transfected CHO-K1 cells; cited from earlier work
# T1 construct: expressed in transfected cells; host or cells: CHO-K1 (stably transfected)
# CCR5 [4] = target: T2, CCR5 (Homo sapiens, UniProt P51681); assay: Dissociation constant of the CCR5/gp120 interaction, applicant's work with recombinant proteins; type: binding
# T2 construct: antagonist of CCR5 function in monocytes; endogenous in cells; host or cells: monocytes
# CCR5 [5] = target: T2, CCR5; conditions: described by others in model systems; read-out: dissociation constant (Kd) of the interaction of CCR5 with gp120; cited from earlier work
Molecule,inhibition of infection of CD4(+) cells at the virus entry stage [2],suppression of replication of primary HIV isolates (primary HIV isolates),block of env-mediated cell-cell fusion [3],agonist activity at CCCKR5 (CCCKR5),further results
c1cc(CN2CCCNCCNCCCNCC2)ccc1CN1CCCNCCNCCCNCC1 [AMD3100],,,,,inhibition of infection of susceptible cultures [1]: inhibit infection
Cc1ccc(-c2ccc3c(c2)C=C(C(=O)Nc2ccc(C[N+](C)(C)C4CCOCC4)cc2)CCC3)cc1.[Cl-] [TAK 779],,,,,block of entry of CCR5-tropic strains (CCR5-tropic strains): blocks entry
"MIP-1-α: macrophage inflammatory protein, β-chemokine ligand of CCR5",inhibit infection,suppress replication,block env-mediated cell-cell fusion,most potent agonist,
RANTES: protein which is regulated upon activation and is normal T-cell expressed and secreted,inhibit infection,suppress replication,block env-mediated cell-cell fusion,active at physiologic concentrations,
SDF-1: chemokine shown to suppress replication of primary HIV isolates,,suppress replication,,,
gp120: envelope protein of HIV that is required for viral entry into the target cells,,,,,Kd (CCR5 [4]): 100 to 1000 nM; Kd (CCR5 [5]): ~1 nM
